Experimental data taken from patent US9278958B2, “Anti-cancer compounds” (KATHOLIEKE UNIVERSITEIT LEUVEN, priority 2012, dated 2016).
Read-outs that look alike come from different tables or passages of the source.

Legend:
[1] = system: Caki-1 kidney carcinoma cells; experiment: Cytostatic assay, Caki-1; type: cell-based; conditions: Homo sapiens, Table 3
Method in brief: (§1)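 Proliferation under compound exposure was measured by counting cells (Coulter) after 48 h to 96 h at 37° C; the period varied with the line. Starting density was 5-7.5×10^4 cells per well in a humidified CO2 atmosphere.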

[2] = system: protein synthesis in Raji cells; experiment: Antimetabolic activity assay, [4,5-3H]leucine incorporation (protein synthesis), Raji; type: cell-based; conditions: Homo sapiens, incorporation into TCA-insoluble material
Experimental: [The procedure below names another cell line; the source lists this cell line under the same test.] (§2) Radiolabeled precursors of DNA synthesis ([^3H-methyl]dThd), RNA synthesis ([5-^3H]Urd), and protein synthesis ([4,5-^3H]leu) were added to 10^5 CEM cell cultures in the 200 μl-wells of a microtiter plate at 1 μCi for each precursor in the presence of varying concentrations of the test compounds (5-fold dilution series). The cells were allowed to proliferate for 20 hrs at 37° C. in a humidified, CO2-controlled atmosphere. At the end of the incubation period, the contents of the wells were brought onto 25-mm glass fiber filters and further processed for measurement of acid-insoluble radioactivity.

[3] = system: RNA synthesis in CEM cells; experiment: Antimetabolic activity assay, [5-3H]uridine incorporation (RNA synthesis), CEM; type: cell-based; conditions: Homo sapiens, CCRF-CEM, incorporation into TCA-insoluble material
Experimental: as §2

[4] = system: 22Rv1 (UZ) prostate cancer cells; experiment: Cytostatic assay, 22Rv1 (UZ); type: cell-based; conditions: Homo sapiens, Table 4
Method in brief: as §1

[5] = system: HOS CD4+ osteosarcoma cells; experiment: Cytostatic assay, HOS CD4+; type: cell-based; conditions: Homo sapiens; Table 3
Experimental: (§3) To each well of a 96-well microtiter plate were added 5-7.5×10^4 cells and a given amount of the test compound. The cells were allowed to proliferate for 48 h to 96 h (depending on the nature of the cell line) at 37° C. in a humidified CO2-controlled atmosphere. At the end of the incubation period, the cells were counted in a Coulter Counter (Coulter Electronics Ltd, Harpenden Herts, United Kingdom).

CEM cells = experiment: Cytostatic assay, CEM; type: cell-based; conditions: Homo sapiens, CCRF-CEM; Table 2; read-out: Cytostatic activity (μM) CEM
Method in brief: as §1

HepG2C3A hepatoma cells = experiment: Cytostatic assay, HepG2C3A; type: cell-based; conditions: Homo sapiens, HepG2/C3A; Table 4
Method in brief: as §1

Sup T1 cells = experiment: Cytostatic assay, Sup T1; type: cell-based; conditions: Homo sapiens, Table 2, read-out: Cytostatic activity (μM) Sup T 1
Method in brief: as §1

[6] = system: THP-1, human monocytic cells; experiment: Cytostatic assay, THP-1; type: cell-based; conditions: Table 2
Method in brief: as §1

BPH-1 (UZ) = experiment: Cytostatic assay, BPH-1 (UZ); type: cell-based; conditions: Homo sapiens, Table 4
Method in brief: as §1

[7] = system: PC-3 (UZ) prostate cancer cells; experiment: Cytostatic assay, PC-3 (UZ); type: cell-based; conditions: Table 4
Method in brief: as §1

[8] = system: protein synthesis in CEM cells; experiment: Antimetabolic activity assay, [4,5-3H]leucine incorporation (protein synthesis), CEM; type: cell-based; conditions: Homo sapiens, CCRF-CEM, incorporation into TCA-insoluble material
Experimental: as §2

[9] = system: DU145 (UZ) prostate cancer cells; experiment: Cytostatic assay, DU145 (UZ); type: cell-based; conditions: Homo sapiens, DU-145; Table 4
Method in brief: as §1

[10] = system: RNA synthesis in Raji cells; experiment: Antimetabolic activity assay, [5-3H]uridine incorporation (RNA synthesis), Raji; type: cell-based; conditions: Homo sapiens, incorporation into TCA-insoluble material
Experimental: [The procedure below names another cell line; the source lists this cell line under the same test.] as §2

[11] = system: OST TK- osteosarcoma cells; experiment: Cytostatic assay, OST TK-; type: cell-based; conditions: Homo sapiens; Table 3
Method in brief: as §1

U87 glioma cells = experiment: Cytostatic assay, U87; type: cell-based; conditions: Homo sapiens, U-87 MG; Table 3
Method in brief: as §1

PLC/PRF/5 hepatoma cells = experiment: Cytostatic assay, PLC/PRF/5; type: cell-based; conditions: Homo sapiens, Table 4
Method in brief: as §1

[12] = system: Caki-2 kidney carcinoma cells; experiment: Cytostatic assay, Caki-2; type: cell-based; conditions: Homo sapiens, Table 3
Method in brief: as §1

[13] = system: HeLa cervix carcinoma cells; experiment: Cytostatic assay, HeLa; type: cell-based, human; conditions: Homo sapiens; Table 3; read-out: Cytostatic activity (μM) Hela
Method in brief: as §1

[14] = system: HL60, human leukemia cells; experiment: Cytostatic assay, HL-60; type: cell-based; conditions: Table 2
Method in brief: as §1

C8166 cells = experiment: Cytostatic assay, C8166; type: cell-based; conditions: Homo sapiens, Table 2
Method in brief: as §1

Molt4/C8 cells = experiment: Cytostatic assay, Molt4/C8; type: cell-based; conditions: Table 2
Method in brief: as §1

HUT-78 cells = experiment: Cytostatic assay, HUT-78; type: cell-based; conditions: Homo sapiens, HuT78; Table 2
Method in brief: as §1

MT-2 cells = experiment: Cytostatic assay, MT-2; type: cell-based; conditions: Homo sapiens, MT2; Table 2
Method in brief: as §1

[15] = system: Raji, human B-lymphoma cells; experiment: Cytostatic assay, Raji; type: cell-based; conditions: Table 2
Method in brief: as §1

[16] = system: U937, human monocytic cells; experiment: Cytostatic assay, U937; type: cell-based; conditions: U-937, Table 2
Method in brief: as §1

[17] = system: U87 CD4+/CXCR4+/CCR5+ glioma cells; experiment: Cytostatic assay, U87 CD4+/CXCR4+/CCR5+; type: cell-based; conditions: Homo sapiens, Glioma cell; Table 3
Experimental: as §3

[18] = system: PNT1A (UZ) prostate cells; experiment: Cytostatic assay, PNT1A (UZ); type: cell-based; conditions: Homo sapiens, Table 4
Method in brief: as §1

[19] = system: HEL embryonic lung fibroblast cells; experiment: Cytostatic assay, HEL; type: cell-based; conditions: Homo sapiens, Table 3
Method in brief: as §1

[20] = system: DNA synthesis in Raji cells; experiment: Antimetabolic activity assay, [CH3-3H]dThd incorporation (DNA synthesis), Raji; type: cell-based; conditions: Homo sapiens, incorporation into TCA-insoluble material
Experimental: [The procedure below names another cell line; the source lists this cell line under the same test.] as §2

[21] = system: MCF-7 mammary carcinoma cells; experiment: Cytostatic assay, MCF-7; type: cell-based; conditions: Homo sapiens, MCF7; Table 3
Method in brief: as §1

MT-4 cells = experiment: Cytostatic assay, MT-4; type: cell-based; conditions: Homo sapiens, MT4; Table 2
Method in brief: as §1

[22] = system: PC3 (rega) prostate cancer cells; experiment: Cytostatic assay, PC3 (rega); type: cell-based; conditions: Table 4
Method in brief: as §1

[23] = system: BAEC aortic endothelial cells; experiment: Cytostatic assay, BAEC; type: cell-based, bovine; conditions: Bos taurus, Table 3
Method in brief: as §1

[24] = system: broad variety of tumor cell lines; experiment: Cytostatic assays, summary over the panel of cell lines (Tables 2-4); type: cell-based
Experimental: as §3

Huh-7 hepatoma cells = experiment: Cytostatic assay, Huh-7; type: cell-based; conditions: Homo sapiens, Table 4
Method in brief: as §1

[25] = system: HT29 colorectal carcinoma cells; experiment: Cytostatic assay, HT29; type: cell-based; conditions: Homo sapiens, HT-29; Table 3
Method in brief: as §1

[26] = system: 293T embryonic kidney cells; experiment: Cytostatic assay, 293T; type: cell-based; conditions: Homo sapiens, HEK-293T; Table 3
Method in brief: as §1

[27] = system: DNA synthesis in CEM cells; experiment: Antimetabolic activity assay, [CH3-3H]dThd incorporation (DNA synthesis), CEM; type: cell-based; conditions: Homo sapiens, CCRF-CEM, incorporation into TCA-insoluble material
Experimental: as §2

[28] = system: Daudi, human B-lymphoma cells; experiment: Cytostatic assay, Daudi; type: cell-based; conditions: Table 2
Experimental: as §3

[29] = system: LNCaP (UZ) prostate cancer cells; experiment: Cytostatic assay, LNCaP (UZ); type: cell-based; conditions: Homo sapiens, Table 4
Method in brief: as §1

[30] = system: FM3A mammary carcinoma cells; experiment: Cytostatic assay, FM3A; type: cell-based, murine; conditions: Mus musculus, Table 3
Method in brief: as §1

SMILES: CCOC(=O)c1cc(CCc2ccc(OC)cc2)sc1N [TR532, 2-Amino-5-[2-(4-methoxy-phenyl)-ethyl]-thiophene-3-carboxylic acid ethyl ester]
- IC50 [1]: 4.6 ± 2.1 µM
- IC50 [2]: ≥ 100 µM
- IC50 [3]: 3 ± 0.1 µM
- IC50 [4]: 15 ± 7.9 µM
- IC50 [5]: 25 ± 5.7 µM
- IC50 (CEM cells): 1.9 ± 0.99 µM
- IC50 (HepG2C3A hepatoma cells): 6.7 ± 0.35 µM
- IC50 (Sup T1 cells): 1.5 ± 0.071 µM
- IC50 [6]: 23 ± 3.5 µM
- IC50 (BPH-1 (UZ)): 43 ± 2.8 µM
- IC50 [7]: 1.1 ± 0.49 µM
- IC50 [8]: 1.6 ± 1.1 µM
- IC50 [9]: 8.4 ± 1.6 µM
- IC50 [10]: > 100 µM
- IC50 [11]: 5.4 ± 3.3 µM
- IC50 (U87 glioma cells): 38 ± 1.4 µM
- IC50 (PLC/PRF/5 hepatoma cells): 24 ± 2.1 µM
- IC50 [12]: 66 ± 37 µM
- IC50 [13]: 39 µM
- IC50 [14]: 7 ± 8.7 µM
- IC50 (C8166 cells): 3.4 ± 0.071 µM
- IC50 (Molt4/C8 cells): 0.34 µM
- IC50 (HUT-78 cells): 22 ± 9.2 µM
- IC50 (MT-2 cells): 1.7 ± 0.14 µM
- IC50 [15]: 39 ± 2.8 µM
- IC50 [16]: 43 ± 1.4 µM
- IC50 [17]: 37 ± 9.9 µM
- IC50 [18]: 37 ± 9.9 µM
- IC50 [19]: 20 ± 8.5 µM
- IC50 [20]: > 100 µM
- IC50 [21]: 36 ± 5.7 µM
- IC50 (MT-4 cells): 8.5 ± 0.92 µM
- IC50 [22]: 0.67 ± 0.14 µM
- IC50 [23]: 23 ± 0.71 µM
- IC50 ([24]; Homo sapiens, HuT78, range for the seven compounds, MT-4 and HUT-78 cells, read-out: IC50 range, cytostatic activity against MT-4 and HUT-78 cells): 8.5 to 60 µM
- IC50 ([24]; range for the seven compounds against the 5 tumor cell lines, read-out: IC50 range, cytostatic activity against CEM, Molt4/C8, Sup T1, MT-2 and C8166 cells): 0.22 to 3.4 µM
- IC50 (Huh-7 hepatoma cells): 1.6 ± 0.14 µM
- IC50 [25]: 27 ± 13 µM
- IC50 [26]: 41 ± 0.71 µM
- IC50 [27]: 11 ± 4 µM
- IC50 [28]: 43 ± 2.1 µM
- IC50 [29]: 0.34 ± 0.05 µM
- IC50 [30]: 46 ± 6 µM
